Here are results for one molecule from patent US6245758A, “Methods of use for peroxynitrite decomposition catalysts, pharmaceutical compositions therefor” (priority 1996, dated 2001).

The subject of series [1] is human dermal microvascular endothelial cells (HDME cells). The experiment in a line: Endothelial cell injury assay (51Cr release), authentic peroxynitrite. It is filed as cell-based. The settings on record: 45 min, peroxynitrite 0-800 uM. The method, then:
FIG. 5: Peroxynitrite-mediated human microvascular endothelial cell injury. Authentic peroxynitrite was overlaid directly onto to ^51 Cr-labeled HMDE cells grown in 96-well cell culture plates. After 45 min the amount of specific cell injury was determined and correlated to peroxynitrite concentration by least squares regression line. Values represent the average of three replicates +/-SEM.
FIG. 6: Peroxynitrite catalysts, Fe(TMPyP) (triangle) and Ni(II)dienoN4)PF6 (circle) were added to HDME cells in the cell injury assay immediately before the addition of authentic peroxynitrite. After 45 min, the amount of specific cell injury was assessed by the amount of radiolabel released into the medium. Values represent the average of three replicas +/-SEM. *p<0.01 vs. 0 uM control by Dunnett's t Test.
[…]: Human recombinant tumor necrosis factor-alpha (TNF-a) was obtained from Genzyme Corporation, Cambridge, MA. Human recombinant complement C5a and L-arginine (L-arg) was purchased from Sigma Chemical Company, St. Louis, Mo. Authentic peroxynitrite in 50 mM NaOH was prepared as described above. […]
Endothelial Cell Injury Assays: The cytotoxic effects of stimulated neutrophils or peroxynitrite on endothelial cells was determined using a ^51 Cr-release assay as described by Moldow (Moldow et. al. Methods Enzymol., 105, 378-385, [1984]). […]

In the next series the test system is RAW 264.7 cells. The experiment in a line: Cell protection assay, Alamar Blue viability after peroxynitrite challenge. The settings on record: RAW 264.7; PN dose of FIG. 8 experiment. It is filed as cell-based, murine. The method, then: FIG. 8: Comparison of Ni and Fe Catalyst Protection of RAW Cells from PN(peroxynitrite)-mediated Injury. RAW 264.7 cells were plated at approximately 2×10^5 per well of a 96-well plate. […] Each condition represents the mean of 4 wells ±sem.
FIG. 9: Protection from PN-mediated RAW Cell Injury by Fe Catalysts. Cells were treated with 500 micromolar PN in the presence or the absence of the following catalysts: FeTMPyP, FeTMPS, FeTPPS. Cell viability was monitored as described in the text and figure legends 1, 2 and 3. Values represent the mean of 4 determinations ±sem.
(§1) Protocol for Cell Protection Assays using Peroxynitrite Decomposition Catalysts: A cell viability assay was established to rapidly assess the efficacy of peroxynitrite(PN) catalysts in protecting cells from PN25 mediated injury and death. The peroxynitrite challenge consisted of a pulse of synthetic PN added exogenously to cells. In order to better assess the efficacy of PN catalysts in protecting cells from PN-mediated damage, a quantity of peroxynitrite(in 50 mM NaOH) determined to cause maximal injury(100%) was added as an exogenous pulse to each well of cells in the presence or absence of catalyst. The NaOH vehicle was not toxic by itself.
Cells(RAW 264.7 cells or P815 mastocytoma cells; American Type Culture Collection, Rockville, Md.) were plated to confluence on 96-well tissue culture plates. Each well is washed twice with Dulbecco's phosphate buffered saline(DPBS; GIBCO BRL, Grand Island, N.Y.) to remove protein and other serum components which might react with the exogenous peroxynitrite. To each well is then added 200 μl of DPBS. PN is next placed into separate wells at increasing concentrations and cell viability monitored. The dose at which maximal cell death is attained is then utilized for the catalyst protection assessment.
Phosphate-buffered saline (200 uL) containing increasing concentrations of catalyst is next placed into individual wells of cells. The maximal dose of PN is subsequently administered to all wells of cells. After 15 minutes, the medium is removed from each well and the cells are either allowed to recover overnight in Earles minimum essential medium without phenol red and supplemented with 10% fetal bovine serum or alternatively the plate of cells is assayed that day for mitochondrial integrity using the Alamar Blue viability assay(Alamar Biosciences, Inc.; Sacramento, Calif.). In either case, cells are incubated at 37° C. in 5% CO2.
Cell injury is measured as follows. Briefly, 10% Alamar Blue(v/v) in Earles MEM with 10% FBS is added to each well of cells for 1-2h. Cell metabolism of the dye generates a fluorescent product which is directly related to the number of viable cells. Moreover, the production of the fluorescent metabolite is linear for over 2 h. The amount of fluorescent product in 100 μl of conditioned medium from each well of cells is then measured with an IDEXX fluorescent plate reader (gain setting of 1%) at an emission wavelength of 575 nm after exciting at 545 nm. Viability is either given as absolute fluorescent units or as a percent of the value obtained for untreated cells(100%).
In general terms: Resazurin is reduced to fluorescent resorufin, in cell work by metabolically active cells.

In another series the test system is RAW and P815 cells. Nature of the series: Comparison of increasing PN doses on RAW and P815 cells. It is filed as cell-based, murine. Conditions: data not shown. The method, then:
as §1
Cells(RAW 264.7 cells or P815 mastocytoma cells; American Type Culture Collection, Rockville, Md.) were plated to confluence on 96-well tissue culture plates. Each well is washed twice with Dulbecco's phosphate buffered saline(DPBS; GIBCO BRL, Grand Island, N.Y.) to remove protein and other serum components which might react with the exogenous peroxynitrite. […] PN is next placed into separate wells at increasing concentrations and cell viability monitored. […]
Cell injury is measured as follows. […] The amount of fluorescent product in 100 μl of conditioned medium from each well of cells is then measured with an IDEXX fluorescent plate reader (gain setting of 1%) at an emission wavelength of 575 nm after exciting at 545 nm. […]

Series [2] is described as follows: Natural background decomposition of peroxynitrite. It is filed as physicochemical. Conditions: 22 ° C, 100 mM potassium phosphate pH=7.4.
Experimental: Kinetic measurements were made on an OLIS Rapid Scanning Stopped-Flow Spectrometer (On-Line Instrument Systems Inc., Bogart, Ga.)) using the OLISRSM-1000 Operating system for data acquisition and manipulation.
Thus, in a typical experiment the natural background decomposition rate of sodium peroxynitrite was determined as follows. A 24 mM stock solution of sodium peroxynitrite in 50 mM NaOH is load into the small volume syringe and 100 mM potassium phosphate pH=7.4 is charged into the large volume syringe of the stopped-flow spectrophotometer. All stopped -flow measurements were made at 22 ° C. Injection of the solutions into the sample compartment results in ~25 fold dilution of the stock sodium peroxynitrite. […] To test for catalytic peroxynitrite decomposition activity, the metal complex was dissolved in 100 mM potassium phosphate buffer pH=7.4 and loaded into the large syringe and the decomposition of peroxynitrite was monitored as described above. The catalytic rate constant (kcat M-1 sec^-1) for the complexes tested was determined by varying the complex concentration and plotting kobs vs [complex] […] The kobs were obtained from averages of three stopped flow analysis at each catalyst concentration.
The conditions of series [3]: Beckman et al. 1990, cited from earlier work.
In another series the test system is CuZnSOD. Nature of the series: Inactivation of CuZnSOD by peroxynitrite (stopped flow superoxide dismutase activity). The settings on record: peroxynitrite 0-100 uM.

The structures appear in SMILES notation. Like-named read-outs stand apart in the source and are kept apart here.

Experimental for CuZnSOD: Stock solutions of bovine liver CuZnSOD (DDI Pharmaceuticals Inc., Mountain View CA) were prepared by dissolving -1.0 mg of enzyme in 10 mL of 50 mM potassium phosphate buffer at a pH=7.4. […] All kobs were the average of triplicate runs using a stopped flow spectrophotometer manufactured by Kinetic Instruments Inc. (Ann Arbor, Mich.) and was interfaced to a MAC IICX personal computer.
Inactivation of CuZn SOD by peroxynitrite.
Inactivation of peroxynitrite was performed by aloquating 1.0 mL of stock CuZn SOD solution into 50 mM potassium phosphate buffer pH=7.4 such that a final assay volume of 10 mL is achieved after addition of peroxynitrite and EDTA solutions. To these assay solution was added various amounts of peroxynitrite (25 mM stock solution) such that the final concentration of peroxynitrite in the assay varied from 0, 25, 50, 75 and 100 uM. After the addition of peroxynitrite, 100 uL of a 2.5 mM stock EDTA solution was added to each assay solution such that the final concentration of EDTA was 250 uM. Each solution was then assayed by stopped flow analysis for superoxide dismutase activity.

For the molecule `O=NOO` [peroxynitrite, sodium peroxynitrite], the “endothelial cell injury by peroxynitrite” value in series [1] is “dose dependent increase in cell injury”. Also, the “decrease in cell viability caused by PN” value in the series with RAW 264.7 cells turned out to be 50%. Also, the “differential susceptibility of RAW and P815 cells to peroxynitrite-mediated injury” value in the series with RAW and P815 cells is on record as “no evidence for a differential susceptibility to peroxynitrite-mediated injury”. Besides, in series [2], the “kobs of decomposition of sodium peroxynitrite” value is recorded as 1.39×10^-1±0.15 sec^-1 and the “t1/2 of decomposition of sodium peroxynitrite” value is 5.2 see. In addition, in series [3] (37° C, pH=7.4), the “t1/2 of decomposition of sodium peroxynitrite” value is 1.9 s. Also, the “observed rate for the decomposition of peroxynitrite” value in series [3] (pH 7.4, 37° C) is reported as 3.6×10^-1 sec-i. For the same molecule, the “inactivation of CuZnSOD” value in the series on CuZnSOD is listed as “inactivates CuZnSOD enzyme in a concentration dependant manner”.
